Assay results reported in patent US20250326794A1, “ANTI-CANCER LEUCINE-RICH PEPTIDES AND USES THEREOF” (KING'S COLLEGE LONDON, priority 2019, published 2025).
Read-outs that look alike come from different tables or passages of the source.

Experiments:
[1] = tested on: HMLER-shEcad (human breast cancer stem cell); assay: cells
Excerpt: (§1) HMLER (human mammary endothelial cancer cells), HMLER-shEcad (human mammary endothelial cancer stem cells), and MCF-10A (healthy human mammary endothelial) cells were maintained in Mammary Epithelial Cell Growth Medium (MEGM) with supplements and growth factors: bovine pituitary extract (BPE), hydrocortisone, human epidermal growth factor (hEGF), insulin, and gentamicin/amphotericin-B. HEK293T (human embryonic kidney cell), and U2OS (Homo sapiens bone osteosarcoma) cells were maintained in Dulbecco's Modified Eagle's Medium (DMEM) with a final concentration of 10% fetal bovine serum. The cells were grown in T75 flask at 310 K in a humidified atmosphere containing 5% CO2.
(§2) The colourimetric MTT (3-(4,5-dimethylthiazol-2-yl)-2,5-diphenyltetrazolium bromide) assay was used to determine the toxicity of the anticancer peptides and conventional anticancer drugs. 5×10^3 cells were seeded in each well of a 96-well microplate. The cells were incubated overnight. Elevated concentrations of the compounds (0, 0.1, 0.2, 0.4, 0.8, 1.6, 3.1, 6.3, 12.5, 25, 50 and 100 μM) were added and incubated for 72 hr with a total volume 200 μL. The stock solutions of the compounds were prepared as 5 mM solutions in DMSO and diluted using media or in pure water. The final concentration of DMSO in each well was either 0.5% or 0% and this amount was present in the untreated control. After 72 hr, 20 μL of a 4 mg/mL solution of MTT in PBS was added to each well, and the plate was incubated for an additional 4 hr. The MEGM/MTT mixture was aspirated and 100 μL of DMSO was added to dissolve the resulting purple formazan crystals. The absorbance of the solutions in each well was read at 550 nm wavelength. Absorbance values were normalized to either DMSO-containing or non DMSO-containing control wells and plotted as concentration of test compound versus % cell viability. IC50 values were interpolated from the resulting dose dependent curves.
(§3) The peptides were screened against several different human cell lines and their cytotoxicity were determined. Cell lines utilised include MCF-10A (human breast epithelial cell), HMLER (human breast cancer bulk cell), HMLER-shEcad (human breast cancer stem cell), HEK293T (human embryonic kidney cell), and U2OS (human bone osteosarcoma).

[2] = tested on: HMLER (human breast cancer bulk cell); assay: cells
Excerpt: as §1, §2, §3

[3] = tested on: HEK293T (human embryonic kidney cell); assay: cells
Excerpt: as §1, §2, §3

[4] = Tryptophan fluorescent binding assay, 3POPC/1POPG vesicles; conditions: 50 μM peptide, PBS pH 7.4, lipid per peptide
Protocol: (§4) In brief, 50 μM peptides were fixed and incubated with titrated POPC vesicles (black) or 3POPC/1POPG vesicles (grey) at concentrations of 0, 12.5, 25, 50, 100, 250, 500, 1000, 2500, and 5000 μM in phosphate buffered saline (1×, pH 7.4). The lipid concentration that causes 50% peptide binding was determined using a tryptophan fluorescent binding assay and the values are shown as lipid per peptide.
(§5) The lipids 1-palmitoyl-2-oleoyl-sn-glycero-3-phosphocholine (POPC), 1-palmitoyl-2-oleoyl-snglycero-3-phospho-(1′-rac-glycerol) (POPG) were purchased from Avanti Polar Lipids and dissolved in chloroform. Large unilamellar vesicles (LUVs) were produced by extrusion through 100 nm pore filter using an extruder and filters purchased from Avanti Polar Lipids.
(§6) Peptides (50 μM) and POPC/POPG LUVs (600 μM) were prepared in 10 mM phosphate buffer (pH 7.0). The solutions were incubated and measured after 60 minutes. Excitation was fixed at 280 nm (slit 9 nm) and emission was collected from 300 to 450 nm (slit 9 nm). The spectra were recorded using a Synergy H1 Hybrid Multi-Mode Reader (FIG. 3A) and Cytation™ 5 Cell Imaging Multi-Mode Reader (FIG. 2) from BioTek and were averaged over 3 scans.
(§7) Table 3 illustrates the lipid concentration-induced 50% peptide binding onto a liposome. 50 μM peptide was fixed and incubated with titrated lipid (POPC vesicles or 3POPC/1POPG vesicles) at concentrations of 0, 12.5, 25, 50, 100, 250, 500, 1000, 2500, and 5000 μM in phosphate buffered saline (1×, pH 7.4). The lipid concentration that causes 50% peptide binding was determined using tryptophan fluorescent binding assay and the values are shown as lipid per peptide. †N-terminus is free, C-terminus: —W—NH2.

[5] = ANTS/DPX liposome leakage assay, POPC vesicles; type: biochemical; conditions: 0.5 mM vesicles; for Peptide Concentration-induced 50% ANTS/DPX leakage at pH 4.8, POPC Vesicle: pH 4.8, lipid per peptide; for Peptide Concentration-induced 50% ANTS/DPX leakage at pH 7.4, POPC Vesicle: pH 7.4, lipid per peptide
Protocol: (§8) In brief, 0.5 mM POPC vesicles (grey) or POPC:POPG vesicles (ratio 3:1, black) were incubated with peptide concentrations of 0, 0.02, 0.04, 0.08, 0.16, 0.32, 0.64, 1.25, 2.5, 5, 10, and 20 μM in each A) hydrochloric acid-adjusted phosphate buffered saline (1×, pH 4.8) and B) phosphate buffered saline (1×, pH 7.4).
as §5
(§9) 5 mM ANTS (8-aminonaphthalene-1,3,6-trisulfonic acid, disodium salt) and 12.5 mM DPX (p-xylene-bis-pyridinium bromide) were entrapped in 0.1 μm diameter extruded vesicles with lipids. Gel filtration chromatography using a Sephadex G-100 (GE Healthcare Life Sciences Inc) was used to remove external free ANTS/DPX from LUVs with entrapped contents. LUVs were diluted to 0.5 mM and used to measure the leakage activity by addition of aliquots of peptides. Leakage was measured after 3 h incubation. 10% Triton was used as the positive control to measure the maximum leakage of the vesicle. Fluorescence emission spectra were recorded using excitation and emission wavelength of 350 nm and 510 nm for ANTS/DPX using a BioTek Synergy H1 Hybrid Multi-Mode Reader.
(§10) Table 4 illustrates peptide concentration-induced 50% ANTS/DPX liposome leakage. 0.5 mM POPC and 3POPC/1POPG vesicles were fixed and incubated with titrated peptide concentration ([…]) each in phosphate buffered saline (1×, pH 7.4) and hydrochloric acid-adjusted phosphate buffered saline (1×, pH 4.8). The values are shown as lipid per peptide. †N-terminus is free, C-terminus: —W—NH2.

[6] = ANTS/DPX liposome leakage assay, 3POPC/1POPG vesicles; type: biochemical; conditions: 0.5 mM vesicles; for Peptide Concentration-induced 50% ANTS/DPX leakage at pH 4.8, 3POPC/1POPG Vesicle: pH 4.8, lipid per peptide; for Peptide Concentration-induced 50% ANTS/DPX leakage at pH 7.4, 3POPC/1POPG Vesicle: pH 7.4, lipid per peptide
Protocol: as §8, §5, §9, §10

[7] = tested on: U2OS (human bone osteosarcoma)
Excerpt: as §1, §2, §3

[8] = Tryptophan fluorescent binding assay, POPC vesicles; conditions: 50 μM peptide, PBS pH 7.4, lipid per peptide
Protocol: as §4, §5, §6, §7

| SMILES | IC50 ([1]; 72 h) | IC50 ([2]; 72 h) | IC50 ([3]; 72 h) | Lipid Concentration-induced 50% Peptide Binding, 3POPC/1POPG Vesicle [4] | Peptide Concentration-induced 50% ANTS/DPX leakage at pH 4.8, POPC Vesicle [5] | Peptide Concentration-induced 50% ANTS/DPX leakage at pH 7.4, POPC Vesicle [5] | Peptide Concentration-induced 50% ANTS/DPX leakage at pH 4.8, 3POPC/1POPG Vesicle [6] | Peptide Concentration-induced 50% ANTS/DPX leakage at pH 7.4, 3POPC/1POPG Vesicle [6] | IC50 ([7]; 72 h) | Lipid Concentration-induced 50% Peptide Binding, POPC Vesicle [8] | IC50 ([1]; read-out: IC50 HMLER-shEcad, MTT, 72 hr) | IC50 ([2]; read-out: IC50 HMLER, MTT, 72 hr) | IC50 ([3]; read-out: IC50 HEK293T, MTT, 72 hr) | IC50 ([7]; read-out: IC50 U20S, MTT, 72 hr) |
| --- | --- | --- | --- | --- | --- | --- | --- | --- | --- | --- | --- | --- | --- | --- |
| CC(C)C[C@H](NC(=O)CN)C(=O)N[C@@H](CC(C)C)C(=O)N[C@@H](Cc1c[nH]cn1)C(=O)N[C@@H](CC(C)C)C(=O)N[C@@H](CC(C)C)C(=O)N[C@@H](CCC(=O)O)C(=O)N[C@@H](CC(C)C)C(=O)N[C@@H](CC(C)C)C(=O)N[C@@H](CC(C)C)C(=O)N[C@@H](CCC(=O)O)C(=O)N[C@@H](C)C(=O)N[C@@H](C)C(=O)NCC(=O)N[C@@H](Cc1c[nH]c2ccccc12)C(N)=O [HEE] | 4.95 ± 0.49 µM | 6.5 ± 0.71 µM | 10.2 ± 0.2 µM | 0.50 L/P | 100 L/P | 876 L/P | 122 L/P | 792 L/P | 47.5 ± 11 µM | 0.58 L/P | – | – | – | – |
| CC(C)C[C@H](NC(=O)CN)C(=O)N[C@@H](CC(C)C)C(=O)N[C@@H](CCC(=O)O)C(=O)N[C@@H](CC(C)C)C(=O)N[C@@H](CC(C)C)C(=O)N[C@@H](Cc1c[nH]cn1)C(=O)N[C@@H](CC(C)C)C(=O)N[C@@H](CC(C)C)C(=O)N[C@@H](CC(C)C)C(=O)N[C@@H](Cc1c[nH]cn1)C(=O)N[C@@H](C)C(=O)N[C@@H](C)C(=O)NCC(=O)N[C@@H](Cc1c[nH]c2ccccc12)C(N)=O [EHH] | 16.1 ± 3.18 µM | 25.4 ± 2.76 µM | 5.9 ± 0.14 µM | 0.69 L/P | 386 L/P | 1043 L/P | 80 L/P | 981 L/P | 117 ± 7 µM | 0.94 L/P | – | – | – | – |
| CC(C)C[C@H](NC(=O)CN)C(=O)N[C@@H](CC(C)C)C(=O)N[C@@H](Cc1c[nH]cn1)C(=O)N[C@@H](CC(C)C)C(=O)N[C@@H](CC(C)C)C(=O)N[C@@H](CCCCN)C(=O)N[C@@H](CC(C)C)C(=O)N[C@@H](CC(C)C)C(=O)N[C@@H](CC(C)C)C(=O)N[C@@H](CCCCN)C(=O)N[C@@H](C)C(=O)N[C@@H](C)C(=O)NCC(=O)N[C@@H](Cc1c[nH]c2ccccc12)C(N)=O [HKK] | 2.6 ± 0.42 µM | 3.4 ± 0.71 µM | 9.5 ± 0.99 µM | 0.14 L/P | 106 L/P | 657 L/P | 106 L/P | 90 L/P | 12.23 ± 0.11 µM | 0.18 L/P | – | – | – | – |
| CC(C)C[C@H](NC(=O)CN)C(=O)N[C@@H](CC(C)C)C(=O)N[C@@H](CCC(=O)O)C(=O)N[C@@H](CC(C)C)C(=O)N[C@@H](CC(C)C)C(=O)N[C@@H](CCCCN)C(=O)N[C@@H](CC(C)C)C(=O)N[C@@H](CC(C)C)C(=O)N[C@@H](CC(C)C)C(=O)N[C@@H](CCCCN)C(=O)N[C@@H](C)C(=O)N[C@@H](C)C(=O)NCC(=O)N[C@@H](Cc1c[nH]c2ccccc12)C(N)=O [EKK] | 1.19 ± 0.4 µM | 1.72 ± 0.21 µM | 3.35 ± 0.49 µM | 0.63 L/P | 60 L/P | 1095 L/P | 219 L/P | 235 L/P | 12.2 ± 1.84 µM | 1.50 L/P | – | – | – | – |
| CC(C)C[C@H](NC(=O)CN)C(=O)N[C@@H](CC(C)C)C(=O)N[C@@H](Cc1c[nH]cn1)C(=O)N[C@@H](CC(C)C)C(=O)N[C@@H](CC(C)C)C(=O)N[C@@H](CCC(=O)O)C(=O)N[C@@H](CC(C)C)C(=O)N[C@@H](CC(C)C)C(=O)N[C@@H](CC(C)C)C(=O)N[C@@H](CCCCN)C(=O)N[C@@H](C)C(=O)N[C@@H](C)C(=O)NCC(=O)N[C@@H](Cc1c[nH]c2ccccc12)C(N)=O [HEK] | 3.45 ± 2.19 µM | 2.35 ± 1.06 µM | 6.95 ± 1.63 µM | 0.46 L/P | 97 L/P | 755 L/P | 41. L/P | 386 L/P | – | 0.44 L/P | – | – | – | – |
| CC(C)C[C@@H](NC(=O)CN)C(=O)N[C@H](CC(C)C)C(=O)N[C@H](CC(=O)O)C(=O)N[C@H](CC(C)C)C(=O)N[C@H](CC(C)C)C(=O)N[C@H](CCC(=O)O)C(=O)N[C@H](CC(C)C)C(=O)N[C@H](CC(C)C)C(=O)N[C@H](CC(C)C)C(=O)N[C@H](CCCCN)C(=O)N[C@H](C)C(=O)N[C@H](C)C(=O)NCC(=O)N[C@H](Cc1c[nH]c2ccccc12)C(N)=O [D-form DEK] | 0.36 µM | 0.44 ± 0.1 µM | 3.28 ± 0.21 µM | – | – | – | – | – | 5.84 ± 0.04 µM | – | – | – | – | – |
| CC(C)C[C@@H](NC(=O)CN)C(=O)N[C@H](CC(C)C)C(=O)N[C@H](CC(=O)O)C(=O)N[C@H](CC(C)C)C(=O)N[C@H](CC(C)C)C(=O)N[C@H](Cc1c[nH]cn1)C(=O)N[C@H](CC(C)C)C(=O)N[C@H](CC(C)C)C(=O)N[C@H](CC(C)C)C(=O)N[C@H](CCCCN)C(=O)N[C@H](C)C(=O)N[C@H](C)C(=O)NCC(=O)N[C@H](Cc1c[nH]c2ccccc12)C(N)=O [D-form DHK] | – | – | – | – | – | – | – | – | – | – | 0.23 ± 0.04 µM | 0.32 ± 0.07 µM | 1.55 ± 0.37 µM | 1.24 ± 0.03 µM |
